Experimental data published in ChEMBL document CHEMBL1143211, “Inhibitors of proteases and amide hydrolases that employ an alpha-ketoheterocycle as a key enabling functionality” (Bioorg Med Chem, 2008).
One block for each molecule: values may come before it. Where a SMILES comes first, the peptide text is derived from it. [ ]: non-standard residue; d: D form. The star is where a group is joined. Nle = CCCC[C@H](N)C(=O)O; Bz = O=C(c1ccccc1)*

Tests used:
[1] = species on record: Homo sapiens; test: Selectivity for human alpha-thrombin over human trypsin
[2] = molecular target: Prothrombin (Homo sapiens, UniProt P00734); test: Inhibition of human alpha-thrombin
[3] = molecular target: Trypsin (Homo sapiens, UniProt P07477+P07478+P35030); test: Inhibition of human trypsin; type: protein assay
[4] = molecular target: T1, Trifunctional purine biosynthetic protein adenosine-3 (Homo sapiens, UniProt P22102); test: Inhibition of human glycinamide ribonucleotide transformylase
T1 sequence (P22102 whole entry): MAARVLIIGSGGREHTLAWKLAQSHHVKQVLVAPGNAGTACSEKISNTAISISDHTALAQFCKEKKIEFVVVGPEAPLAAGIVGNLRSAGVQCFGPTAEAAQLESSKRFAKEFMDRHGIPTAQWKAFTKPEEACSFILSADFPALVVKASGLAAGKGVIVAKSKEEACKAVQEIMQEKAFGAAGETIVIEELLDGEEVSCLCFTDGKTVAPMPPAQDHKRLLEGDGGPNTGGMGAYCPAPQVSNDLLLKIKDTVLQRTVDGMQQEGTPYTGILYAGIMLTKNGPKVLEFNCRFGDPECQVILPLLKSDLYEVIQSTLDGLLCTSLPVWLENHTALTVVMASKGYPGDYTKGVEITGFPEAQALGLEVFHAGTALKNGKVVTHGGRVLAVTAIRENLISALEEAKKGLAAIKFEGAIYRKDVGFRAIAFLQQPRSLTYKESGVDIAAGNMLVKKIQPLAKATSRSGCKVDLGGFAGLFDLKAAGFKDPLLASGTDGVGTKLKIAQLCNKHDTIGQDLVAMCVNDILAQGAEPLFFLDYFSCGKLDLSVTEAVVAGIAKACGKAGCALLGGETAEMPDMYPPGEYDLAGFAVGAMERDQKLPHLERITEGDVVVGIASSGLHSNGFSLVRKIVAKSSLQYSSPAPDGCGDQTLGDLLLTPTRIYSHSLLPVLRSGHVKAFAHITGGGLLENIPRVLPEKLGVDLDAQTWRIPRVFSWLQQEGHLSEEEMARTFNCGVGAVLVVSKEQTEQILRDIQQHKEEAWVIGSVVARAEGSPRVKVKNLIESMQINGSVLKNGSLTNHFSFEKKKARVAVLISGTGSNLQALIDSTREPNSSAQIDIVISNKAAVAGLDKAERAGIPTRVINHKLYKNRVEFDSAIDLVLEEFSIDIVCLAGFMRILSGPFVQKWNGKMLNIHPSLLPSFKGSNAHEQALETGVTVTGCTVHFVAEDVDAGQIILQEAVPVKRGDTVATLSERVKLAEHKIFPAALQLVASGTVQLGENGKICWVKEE

[5] = molecular target: Granzyme B (Homo sapiens, UniProt P10144); test: Inhibition of granzyme B
Granzyme B, sequence (P10144 whole entry): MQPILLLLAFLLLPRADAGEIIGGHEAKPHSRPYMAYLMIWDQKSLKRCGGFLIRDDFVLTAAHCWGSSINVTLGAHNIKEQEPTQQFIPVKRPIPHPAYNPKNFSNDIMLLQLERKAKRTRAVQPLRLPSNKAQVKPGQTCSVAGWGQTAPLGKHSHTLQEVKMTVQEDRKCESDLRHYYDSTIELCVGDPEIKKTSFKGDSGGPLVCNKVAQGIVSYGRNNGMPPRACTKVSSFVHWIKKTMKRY

[6] = Selectivity for rat FAAH over triacylglycerol hydrolase
[7] = molecular target: T2, Fatty-acid amide hydrolase 1 (Homo sapiens, UniProt O00519); test: Inhibition of human recombinant FAAH
T2 sequence (O00519 whole entry): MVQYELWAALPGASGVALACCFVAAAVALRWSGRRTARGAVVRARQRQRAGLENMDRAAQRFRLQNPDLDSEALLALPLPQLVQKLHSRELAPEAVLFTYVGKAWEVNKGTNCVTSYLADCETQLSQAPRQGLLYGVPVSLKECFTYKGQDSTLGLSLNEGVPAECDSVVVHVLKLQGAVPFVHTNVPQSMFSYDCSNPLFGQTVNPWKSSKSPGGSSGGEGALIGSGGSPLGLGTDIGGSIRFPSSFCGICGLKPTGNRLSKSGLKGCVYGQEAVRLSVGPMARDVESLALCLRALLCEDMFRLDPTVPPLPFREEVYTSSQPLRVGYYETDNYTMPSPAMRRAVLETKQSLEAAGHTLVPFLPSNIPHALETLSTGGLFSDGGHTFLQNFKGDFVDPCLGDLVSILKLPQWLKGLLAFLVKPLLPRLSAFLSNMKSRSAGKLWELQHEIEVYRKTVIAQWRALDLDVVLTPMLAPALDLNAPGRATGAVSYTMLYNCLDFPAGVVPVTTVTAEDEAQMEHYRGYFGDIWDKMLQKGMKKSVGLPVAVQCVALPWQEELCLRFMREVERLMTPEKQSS

[8] = species on record: Homo sapiens; test: Selectivity for human beta-tryptase over human alpha thrombin
[9] = Selectivity for human alpha-thrombin over factor 10a
[10] = Inhibition of human beta-tryptase
[11] = Selectivity for human alpha-thrombin over tissue plasminogen activator
[12] = Selectivity for human alpha-thrombin over plasmin
[13] = system: Platelet; test: Antithrombotic activity assessed as inhibition of alpha-thrombin-induced human platelet aggregation; type: functional, cell-based
[14] = Selectivity for human alpha-thrombin over uPA
[15] = Selectivity for human alpha-thrombin over bovine trypsin
[16] = system: Hamster; test: Efficacy in po dosed hamster acute lung injury model; type: functional; settings: Cricetinae
[17] = Inhibition of dengue virus NS3 protease
[18] = Inhibition of post-glutamyl peptide hydrolase-like activity of human 20S proteasome
[19] = Inhibition of trypsin-like activity of human 20S proteasome
[20] = system: rhinovirus B14; test: Antiviral activity against human rhinovirus 14; type: functional, organism-based; settings: Rhinovirus B
[21] = Inhibition of human rhinovirus 14 3C protease; parameters: species or system rhinovirus B14
[22] = molecular target: Coagulation factor X (Homo sapiens, UniProt P00742); test: Inhibition of human factor 10a
Coagulation factor X, sequence (P00742 41-179 limits assumed): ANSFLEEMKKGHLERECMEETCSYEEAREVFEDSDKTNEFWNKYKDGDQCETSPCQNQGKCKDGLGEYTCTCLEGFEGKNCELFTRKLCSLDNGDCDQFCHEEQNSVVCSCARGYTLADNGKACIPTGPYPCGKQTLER
Coagulation factor X, sequence (P00742 235-488 limits assumed): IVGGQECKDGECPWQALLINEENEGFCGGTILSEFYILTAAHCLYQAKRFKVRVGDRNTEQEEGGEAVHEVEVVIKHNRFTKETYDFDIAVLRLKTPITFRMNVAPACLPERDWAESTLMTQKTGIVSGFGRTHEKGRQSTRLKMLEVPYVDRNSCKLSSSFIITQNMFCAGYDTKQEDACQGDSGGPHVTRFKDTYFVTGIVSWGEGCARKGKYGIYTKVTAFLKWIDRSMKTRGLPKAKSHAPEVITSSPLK

[23] = molecular target: Plasma kallikrein (Homo sapiens, UniProt P03952); test: Inhibition of kallikrein
Plasma kallikrein, sequence (P03952 20-390 limits assumed): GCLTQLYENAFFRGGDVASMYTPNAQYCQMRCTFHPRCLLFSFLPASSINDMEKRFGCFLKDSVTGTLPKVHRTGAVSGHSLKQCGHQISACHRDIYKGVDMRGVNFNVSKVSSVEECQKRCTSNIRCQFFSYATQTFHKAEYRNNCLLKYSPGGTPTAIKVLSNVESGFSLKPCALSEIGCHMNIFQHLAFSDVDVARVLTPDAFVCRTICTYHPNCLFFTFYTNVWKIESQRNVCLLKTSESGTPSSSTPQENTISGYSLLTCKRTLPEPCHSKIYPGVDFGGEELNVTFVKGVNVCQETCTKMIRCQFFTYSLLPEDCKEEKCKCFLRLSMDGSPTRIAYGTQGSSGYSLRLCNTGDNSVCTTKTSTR
Plasma kallikrein, sequence (P03952 391-638 limits assumed): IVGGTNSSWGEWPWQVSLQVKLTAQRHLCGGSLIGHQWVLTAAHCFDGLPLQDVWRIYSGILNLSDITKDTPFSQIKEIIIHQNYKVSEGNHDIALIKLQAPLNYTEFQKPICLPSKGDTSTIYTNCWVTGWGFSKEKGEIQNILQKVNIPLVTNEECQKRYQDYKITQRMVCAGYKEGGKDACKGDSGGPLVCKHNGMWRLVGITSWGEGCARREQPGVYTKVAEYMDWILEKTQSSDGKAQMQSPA

[24] = molecular target: T3, Fatty-acid amide hydrolase 1 (Rattus norvegicus, UniProt P97612)
T3 sequence (P97612 whole entry): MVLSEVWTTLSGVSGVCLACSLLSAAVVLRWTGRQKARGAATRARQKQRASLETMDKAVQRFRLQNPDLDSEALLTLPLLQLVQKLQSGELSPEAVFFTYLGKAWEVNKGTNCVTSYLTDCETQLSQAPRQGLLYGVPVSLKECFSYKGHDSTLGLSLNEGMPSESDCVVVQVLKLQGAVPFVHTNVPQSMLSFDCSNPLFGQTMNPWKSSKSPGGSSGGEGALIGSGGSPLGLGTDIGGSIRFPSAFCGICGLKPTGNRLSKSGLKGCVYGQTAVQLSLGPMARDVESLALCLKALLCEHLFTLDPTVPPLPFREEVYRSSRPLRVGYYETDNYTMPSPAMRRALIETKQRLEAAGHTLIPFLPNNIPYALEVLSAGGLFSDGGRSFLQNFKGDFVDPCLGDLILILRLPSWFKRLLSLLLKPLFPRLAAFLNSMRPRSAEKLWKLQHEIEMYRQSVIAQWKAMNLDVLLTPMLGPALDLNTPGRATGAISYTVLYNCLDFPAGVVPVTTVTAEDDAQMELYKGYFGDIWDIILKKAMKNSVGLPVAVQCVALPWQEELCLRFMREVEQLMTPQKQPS

[25] = Selectivity for rat FAAH over lipoprotein lipase
[26] = Selectivity for rat FAAH over carboxylesterase 1 lipase
[27] = Selectivity for rat FAAH over monoacylglycerol lipase
[28] = Inhibition of calpain 1 at 10 uM
[29] = molecular target: Chymase (Homo sapiens, UniProt P23946)
Chymase, sequence (P23946 whole entry): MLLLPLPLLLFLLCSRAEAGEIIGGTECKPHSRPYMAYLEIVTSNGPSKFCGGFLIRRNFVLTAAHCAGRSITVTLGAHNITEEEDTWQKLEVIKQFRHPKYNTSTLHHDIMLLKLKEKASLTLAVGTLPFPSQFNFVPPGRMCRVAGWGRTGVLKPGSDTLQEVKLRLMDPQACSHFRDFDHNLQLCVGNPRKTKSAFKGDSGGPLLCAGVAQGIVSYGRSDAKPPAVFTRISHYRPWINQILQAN

[30] = Selectivity for human beta-tryptase over kallikrein

Ratio Ki [1]: 500 | Ki [2]: 1.2 nM | IC50 [3]: 9.7 µM
Compound: N=C(N)N1CCC[C@@H](C[C@H](NC(=O)CN2C(=O)CN(CCCc3ccccc3)C(=O)[C@H]2Cc2ccccc2Cl)C(=O)c2nccs2)C1

Ki [4]: 1800 nM
Compound: Nc1nc(N)c(CCCC(c2ccc(C(=O)N[C@@H](CCC(=O)O)C(=O)O)cc2)C(O)c2nc3ccccc3o2)c(=O)[nH]1 (some centres not stated)

Ki [5]: 85 nM
Compound: CC[C@H](C)[C@H](NC(C)=O)C(=O)N[C@H]1CCc2cccc3c2N(C1=O)[C@H](C(=O)N[C@@H](CC(=O)O)C(=O)c1nc2ccccc2s1)C3

Selectivity ratio [6]: 30 | Ki [7]: 13 nM
Compound: CCCCCCCC/C=C\CCCCCCCC(=O)c1nc2ncccc2o1

Selectivity ratio [1]: > 50 | Selectivity ratio [8]: > 1000 | Selectivity ratio [9]: > 1000 | Ki [10]: 3 nM
Compound: CCOC(=O)N[C@@H](CCCCN)C(=O)c1noc(Cc2ccc(C(=O)NC3Cc4ccccc4C3)cc2)n1

Selectivity ratio [9]: 2400 | Selectivity ratio [11]: 23000 | Selectivity ratio [12]: 12000 | IC50 [13]: 30 nM | Selectivity ratio [14]: 23000 | Ki [10]: 6.5 nM | Ratio Ki [15]: 15
Compound: CN[C@H](Cc1ccccc1)C(=O)N1CCC[C@H]1C(=O)N[C@@H](CCCN=C(N)N)C(=O)c1nc2ccccc2s1

Compound: COC(=O)N[C@H](C(=O)N1CCC[C@H]1C(=O)N[C@H](C(=O)c1nn(-c2ccc(N(C)C)cc2)c(=O)o1)C(C)C)C(C)C
ED50 [16]: 7.5 mg/kg

Compound: CCCC[C@H](NC(=O)c1ccccc1)C(=O)N[C@@H](CCCCN)C(=O)N[C@@H](CCCNC(=N)N)C(=O)N[C@@H](CCCNC(=N)N)C(=O)c1nc2ccccc2o1
Ki [17]: 83 µM

Ki [5]: 8 nM
Compound: CC[C@H](C)[C@H](NC(C)=O)C(=O)N[C@H]1CCc2cccc3c2N(C1=O)[C@H](C(=O)N[C@H](C=O)CC(=O)O)C3

Compound: CC(C)[C@H](NC(=O)Cn1c(-c2ccc(F)cc2)ncc(N)c1=O)C(=O)c1nnc(C(C)(C)c2ccccc2)o1
ED50 [16]: 10 mg/kg

Compound: Nc1nc(N)c(CCCC(C(=O)c2nc3ccccc3o2)c2ccc(C(=O)N[C@@H](CCC(=O)O)C(=O)O)cc2)c(=O)[nH]1 (some centres not stated)
Ki [4]: 600 nM

Ki [18]: > 300 µM | Ki [19]: 290 µM
Compound: Cc1ccc(S(=O)(=O)N[C@@H](CC(=O)NCC(C)(C)C)C(=O)N[C@@H](C)C(=O)N[C@@H](CC(C)C)C(=O)c2nnc(-c3ccc(N(C)C)cc3)o2)cc1

Compound: Cc1cccc(Cc2nnc(C(=O)[C@@H](NC(=O)Cn3c(-c4ccc(F)cc4)ncc(N)c3=O)C(C)C)o2)c1
ED50 [16]: 13 mg/kg

Ki [5]: 7 nM
Compound: CC[C@H](C)[C@H](NC(C)=O)C(=O)N[C@H]1CCc2cccc3c2N(C1=O)[C@H](C(=O)N[C@@H](CC(=O)O)C(=O)c1nnc(-c2ccccc2)o1)C3

EC50 [20]: 0.34 µM
Compound: Cc1cc(C(=O)N[C@H](C(=O)N[C@@H](Cc2ccc(F)cc2)C(=O)N[C@@H](C[C@@H]2CCNC2=O)C(=O)c2nc3ccccc3s2)C(C)C)no1
Ki [21]: 4.5 nM

EC50 [20]: 3.2 µM
Compound: CC(C)C[C@H](NC(=O)OCc1ccccc1)C(=O)N[C@@H](Cc1ccccc1)C(=O)N[C@@H](C[C@H]1CCNC1=O)C(=O)c1nc2ccccc2s1
Ki [21]: 65 nM

IC50 [22]: 1 nM | IC50 [23]: 120 nM
Compound: N=C(N)NCCC[C@H](NC(=O)CNC(=O)[C@@H](CCCNC(=N)N)NS(=O)(=O)CCc1ccccc1)C(=O)c1nccs1

Compound: CCCC[C@H](NC(=O)c1ccccc1)C(=O)N[C@@H](CCCCN)C(=O)N[C@@H](CCCNC(=N)N)C(=O)N[C@H](C=O)CCCNC(=N)N (Bz-[Nle]KRR-aldehyde)
Ki [17]: 5.8 µM

Selectivity ratio [1]: 275 | Ki [10]: 1.5 nM
Compound: NCCCC[C@H](NC(=O)c1cc(F)cc(F)c1)C(=O)c1noc(Cc2ccc(C(=O)NCCc3cccc(Cl)c3)cc2)n1

Compound: CCCC[C@H](NC(=O)c1ccccc1)C(=O)N[C@@H](CCCCN)C(=O)N[C@@H](CCCNC(=N)N)C(=O)N[C@H](CCCNC(=N)N)B(O)O
Ki [17]: 0.043 µM

IC50 [22]: 2 nM | IC50 [23]: 29 nM
Compound: N=C(N)NCCC[C@H](NC(=O)CNC(=O)[C@@H](CCCNC(=N)N)NS(=O)(=O)CCc1ccccc1)C(=O)c1nc2ccccc2s1

Ki [24]: 0.2 nM | Ki [7]: 0.26 nM
Compound: N#Cc1cnc(C(=O)CCc2ccc(-c3ccccc3)cc2)o1

Compound: CCCC[C@H](NC(=O)c1ccccc1)C(=O)N[C@@H](CCCCN)C(=O)N[C@@H](CCCNC(=N)N)C(=O)N[C@@H](CCCNC(=N)N)C(=O)c1nccs1
Ki [17]: 43 µM

Selectivity ratio [25]: > 10000 | Selectivity ratio [26]: > 10000 | Selectivity ratio [6]: 10 | Selectivity ratio [27]: > 10000
Compound: O=C(CCCCCc1ccccc1)c1nc2ncccc2o1

inhibition [28]: 54%
Compound: CC(C)C[C@H](NC(=O)OCc1ccccc1)C(=O)N[C@@H](CC(C)C)C(=O)N[C@@H](Cc1ccccc1)C(=O)c1nccs1

Ki [29]: 23 nM
Compound: COC(=O)c1ccc2oc(C(=O)[C@H](Cc3ccccc3)NC(=O)Cn3c(-c4ccc(F)cc4)ncc(N)c3=O)nc2c1

Ki [7]: 73 nM
Compound: CCCCCCCC/C=C\CCCCCCCC(=O)c1nc2ccccc2o1

Ki [24]: 6.9 nM | Selectivity ratio [25]: > 10000 | Selectivity ratio [26]: > 10000 | Selectivity ratio [6]: 10 | Selectivity ratio [27]: > 10000
Compound: O=C(CCCc1ccccc1)c1nc2ncccc2o1

Selectivity ratio [9]: > 500 | Selectivity ratio [11]: > 500 | Selectivity ratio [12]: > 500 | Selectivity ratio [30]: 30 | Selectivity ratio [14]: 200 | Ki [10]: 10 nM
Compound: CC(=O)N1C[C@H](O)C[C@H]1C(=O)N[C@@H](CCCN=C(N)N)C(=O)c1nc2ccccc2s1

Selectivity ratio [1]: > 50 | Ki [10]: 25 nM
Compound: C=CCOC(=O)N[C@@H](CC1CCNC1)C(=O)c1noc(Cc2ccc(C(=O)NC3Cc4ccccc4C3)cc2)n1 (some centres not stated)

Ki [18]: > 900 µM | Ki [19]: > 900 µM
Compound: Cc1ccc(S(=O)(=O)N[C@@H](CC(=O)NCC(C)(C)C)C(=O)N[C@](C)(CO)C(=O)N[C@@H](CC(C)C)C(=O)c2nnc(-c3ccccc3)o2)cc1

inhibition [28]: 77%
Compound: CC(C)C[C@H](NC(=O)OC(C)(C)C)C(=O)N[C@@H](CC(C)C)C(=O)c1ncc[nH]1

EC50 [20]: > 10 µM
Compound: CC(C)C[C@H](NC(=O)OCc1ccccc1)C(=O)N[C@@H](Cc1ccccc1)C(=O)N[C@@H](C[C@H]1CCNC1=O)C(=O)c1cc2ccccc2s1
Ki [21]: 4700 nM
